Assay results: publication PMC6544338, “Comparative biophysical characterization: A screening tool for acetylcholinesterase inhibitors” (PLoS ONE, 2019)
Like-named read-outs stand apart in the source and are kept apart here.

Columns and labels:
[1] = biological target: T1, AChE (Electrophorus electricus, UniProt O42275); experiment: Far-UV circular dichroism of AChE with small molecules (secondary structure composition); conditions: single molecule; for Turns of AChE in presence of the molecule: AChE alone 0; for α helix of AChE in presence of the molecule: AChE alone 3.6±0.012; for Random of AChE in presence of the molecule: AChE alone 44.2±0.46; for β sheets of AChE in presence of the molecule: AChE alone 52.3±0.6
T1 construct: purchased Sigma (St. Louis, MO, USA)
Procedure: Protein solutions 0.5 milligram per milliliter (mgml^-1) was prepared in 10 mM PBS at pH 7.7. Scans were performed at room temperature using 0.1 cm path length quartz cuvette with 8 s differential integration time at a scan rate of 100 nano meter per minute (nm min^-1). The CD spectrum of AChE enzyme individually and with different small molecules, also in combination was recorded. All spectra resulted from averaging three scans were corrected from the buffer blank. Results were expressed as molar ellipticity (°cm^2 dmol^-1) based on a mean amino acid residue weight (MRW) 110 Da for AChE. The molar ellipticity was determined as [θ obs] = {100 × (MRW) × θobs/cl}, where θ is the observed ellipticity in degrees at a given wavelength, c is the protein concentration in mgml^-1, and l is the path length in cm.
The relative percentages of the secondary structure elements were estimated in triplicates using Manager Suite software.

[2] = tested on: AChE; conditions: read-out: IC50, cited from earlier work
[3] = biological target: T2, acetylcholinesterase from Electrophorus electricus (Electric eel) (Electrophorus electricus, UniProt O42275); experiment: Inhibition assay for acetylcholinesterase activity (modified Ellman, ATCI/DTNB, 412 nm); format: biochemical
T2 construct: purchased Sigma (St. Louis, MO, USA)
Procedure: The assay was performed with some modifications of Ellman et al (1961). […] The hydrolysis was monitored by the formation of yellow color (5-thio-2-nitrobenzoate anion) and the absorbance was measured at 412 nm by using spectrophotometer (UV-1800, Shimadzu, Japan).
The inhibitory activity assay was carried out with slight modifications. […] The inhibitory percentage of AChE was calculated as follows:
%inhibition = 100[A − B] − [C − D]/[A − B]
A is the OD without test substance, B is the OD without test substance and AChE, C is the OD with the test substance, D is the OD at 412 nm with the test substance and without AChE.
The relative percentage inhibition were estimated in triplicates and values were expressed as mean ± SEM (n = 3).

[4] = biological target: T1, AChE; experiment: Fluorescence spectral studies of AChE incubated with molecules; conditions: excitation 365 nm, control emission maxima […] nm, molecules at IC50 concentration, 10 min
Procedure: The fluorescence intensities were recorded using 0.5 mgml^-1 protein concentration with an excitation wavelength of 365 nm and an emission wavelength of 400–700 nm with slit widths of 20 nm using MY14410002 fluorescence spectrophotometer (Agilent Technologies, USA) at 25°C. Protein solutions of 0.5 mgml^-1 were prepared in 10 mM PBS at pH 7.7. Scans were performed at room temperature using a 1 cm path length quartz cuvette with 1 s differential integration time at a scan rate of 600 nm min^-1. […] The subsequent changes in fluorescence were measured at this wavelength.
Fig 21 a) Intrinsic fluorescence spectra of the AChE incubated with molecules. […] Scans were performed at 37°C using a 1 cm path length quartz cuvette with 1 s differential integration time at a scan rate of 600 nm min^-1. The excitation wavelength was 365 nm and emission wavelength was in the range of 400–700 nm. b) Intrinsic fluorescence spectra of the AChE incubated with molecules. […] Scans were performed at 37° C using a 1 cm path length quartz cuvette with 1 s differential integration time at a scan rate of 600 nm min^-1. The excitation wavelength was 365 nm and the emission wavelength was in the range of 400–700 nm.

[5] = biological target: T3, immobilized AChE (Electrophorus electricus, UniProt O42275); experiment: biochemical; format: binding; conditions: for Kd / Ka1 / Kd1: 25°C
T3 construct: purchased Sigma (St. Louis, MO, USA)
Procedure: (§1) The protocol was followed with some modifications for enzyme immobilization, scouting and screening. SPR interactions were performed using a Biacore X100 optical biosensor (GE Healthcare Life Sciences, Bangalore, India) at 25°C. SPR analysis was carried out in PBS (200 mM, pH 7.7) from the analyte stock solutions, working solutions were diluted before passing on to the sensor surface. Data collection was done with the help of Biacore control software ver 2.0.2 Sets of experiments were carried out by monitoring change in the refractive index as a function of time under constant flow conditions. The relative amount of inhibitor bound to the AChE was determined by measuring the net increase in the refractive index over time compared to buffer as a control. During each run, there is an inline subtraction of the reference surface. Change is reported regarding response units (RU). The surface was washed with 5 cycles of running buffer (PBS) before next analytes.
(§2) As per pH scouting studies, AChE enzyme (100μg) was dissolved in 100 mM sodium acetate buffer pH 4.5 and was immobilized to the CM5 sensor chip by using the amine coupling method. The flow rate was kept constant during immobilization at 10 μlmin^-1, the surface of flow cell was activated by 1:1 mixture of 100 mM EDC and 100 mM NHS (both dissolved in water) for 7 min. AChE was injected for 7 min, and residual activated carboxymethyl groups were blocked on the sensor surface by 7 min injection of 1M ethanolamine, pH 8.5. In this particular study, flow cell 1 was blank immobilized (without protein) and used as a reference. Inline and double referencing was done for the buffer RU compensation.
(§3) Here the model describes this competitive situation and returns two sets of rate constants, one for each reaction taking into consideration two different analytes. The same buffer was used as running buffer. The constant flow rate was maintained throughout the kinetics (45 μlmin^-1), contact time and dissociation time was kept at 120 second (s). 10 mM glycine pH 3.0 for the time period of 30 s was used for regeneration. The experiments were carried at different concentrations of inhibitors.
(§4) The analysis of data was carried out with X100 evaluation software ver 2.0.2 and fitted to two state fit for individual molecules and for competitive experiments a heterogeneous analyte binding model.

[6] = tested on: AChE activity of the central nervous tissue of L.acuminata; conditions: 0.04 mM tannic acid; cited from earlier work
[7] = biological target: T3, immobilized AChE; experiment: biochemical; format: binding; conditions: for Kd: read-out: Molecule 1 KD
Procedure: as §1, §2, §3, §4
Likewise, competitive experiments between different pairs was run by mixing 1:1 ratio of molecules and was fit to heterogeneous analyte model were studied. These experiments are helpful for determining the kinetics of a small molecule analyte in competition with other. Response contributions from both analytes are taken into account by considering molecular weight and concentrations of analytes. For competition binding experiments, pairing was done based on substrate-inhibitor and inhibitor-inhibitor interactions. […] Finally, naturally occurring crocin was also tested due to reports in the literature as a brain tonic for the Alzheimer's.

[8] = affinity fit, read-out: KD Affinity
[9] = pair tannic acid (molecule 1) and ATCI (molecule 2), 1:1

T1 sequence (O42275 24-633): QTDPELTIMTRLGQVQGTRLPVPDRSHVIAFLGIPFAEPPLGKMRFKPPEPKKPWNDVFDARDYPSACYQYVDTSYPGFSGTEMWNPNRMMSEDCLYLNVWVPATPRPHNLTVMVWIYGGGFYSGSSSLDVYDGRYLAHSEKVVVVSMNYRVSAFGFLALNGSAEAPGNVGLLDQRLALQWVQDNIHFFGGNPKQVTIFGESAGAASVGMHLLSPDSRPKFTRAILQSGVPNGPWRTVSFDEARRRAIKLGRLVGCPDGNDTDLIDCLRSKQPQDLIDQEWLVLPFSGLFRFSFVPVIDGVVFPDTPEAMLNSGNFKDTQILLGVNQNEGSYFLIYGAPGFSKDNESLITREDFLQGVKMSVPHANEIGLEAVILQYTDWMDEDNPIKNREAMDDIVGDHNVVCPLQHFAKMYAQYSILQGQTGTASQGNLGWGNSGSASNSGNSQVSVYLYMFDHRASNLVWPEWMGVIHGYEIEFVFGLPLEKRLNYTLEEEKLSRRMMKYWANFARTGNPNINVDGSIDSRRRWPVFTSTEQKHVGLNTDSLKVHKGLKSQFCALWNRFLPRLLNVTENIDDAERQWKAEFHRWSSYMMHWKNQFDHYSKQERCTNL
T3 sequence (O42275 24-633): as above
T2 sequence (O42275 24-633): as above

| Compound | Turns of AChE in presence of the molecule [1] [%] | α helix of AChE in presence of the molecule [1] [%] | Random of AChE in presence of the molecule [1] [%] | β sheets of AChE in presence of the molecule [1] [%] | change in fluorescence emission of AChE compared to control enzyme [4] | Ka2 [5] | Kd [5, 8] [µM] | Ka1 ([5]; two-state model) [M⁻¹ s⁻¹] | Kd1 ([5]; two-state model) [s⁻¹] | other results |
| --- | --- | --- | --- | --- | --- | --- | --- | --- | --- | --- |
| Oc1cccc(O)c1O [Pyrogallol, pyrogallol] | 0 | 0 | 49.2±0.68 | 50.8±0.73 | quenching | 0.01979±3.7×10^−4 1/s | 119 | 200.1 ± 3.3 | 0.05082 ± 0.0015 | IC50 [2]: 10.2 µM; IC50 [3]: 3800 ± 100 µM; Kd2 [5]: 0.002793±3.2×10^−5 1/s; Kd ([5]; two-state model, read-out: KD Kinetics): 31.4 µM |
| tannic acid | 14.8±0.08 | 5.1±0.039 | 49.5±0.70 | 30.6±0.19 | redshift | 0.1039±2.2×10^−4 1/s | 11.4 | 1400 ± 47 | 0.03423 ± 0.017 | reduced AChE activity [6]: 37%; IC50 ([3]; […] ATCI, PBS 200 mM pH 7.7, 37°C, mean ± SEM (n = 3), read-out: IC50): 27 ± 2 µM; Molecule 1 ka1 [7]: 231.1 ± 3.3 M⁻¹ s⁻¹; Molecule 1 kd1 [7]: 2.685e-05 ± 2.9e-08 s⁻¹; Molecule 1 ka1 [7, 9]: 1.687e-05 ± 3.7e+06 M⁻¹ s⁻¹; Molecule 1 kd1 [7, 9]: 0.01266 ± 0.028 s⁻¹; Kd [7, 9]: 0.0751 µM; Kd [7]: 0.116 µM |
| O=C(O[C@@H]1Cc2c(O)cc(O)cc2O[C@@H]1c1cc(O)c(O)c(O)c1)c1cc(O)c(O)c(O)c1 [epigallocatechin gallate] | – | – | – | – | – | – | – | – | – | IC50 ([2]; literature value, no reference printed behind it): 16.8 µM |
